# In a melting point compilation (Tetko et al.; mined from patent text by program, amines drawn as free bases though some values may be those of a salt):
row,melting point [°C],Compound
1,178 to 179,COc1nc2cc(Cl)c(Cl)c(-n3c(CN4CCOCC4)nnc3-c3cccnc3)c2nc1OC
2,168 to 173,CSc1ccc(Cl)c(C(=O)Nc2ccc(-n3nc(C4CC4)cc3C3CC3)cc2)c1
3,113 to 115,CC(=O)c1ccc2ccc3ccccc3c2n1
4,51 to 52,C=CCOc1cccc(C(C)=O)c1O
5,193,CCOC(=O)N1CCC(NC(=S)Nc2cncnc2NCc2ccco2)CC1
6,78 to 80,CCCCCCC(=N)NC(=S)Nc1ccc(C)cc1Cl
7,> 150,Nc1c(NC2CCc3ccccc32)[nH]c(=O)[nH]c1=O (centres undefined)
8,190,COc1ccc2c3c1c(C)c(-c1ccc(O)cc1)n3CC(CCO)O2 (centres undefined)
9,113 to 114,COc1cc2c(c3c1OC(C)(C)C3)C(c1cccnc1)=NC(C)(C)C2
10,124 to 127,COC(=O)C(C)(C)OCc1cc2nc(C(F)(F)F)ccc2n1S(=O)(=O)c1ccc2ncsc2c1
11,178 to 180,CCc1nc(OC)c(NC(=O)N2CCN(c3cc(C)cc(C)c3)CC2)cc1C(=O)Nc1cc(CO)cc(Nc2c3ccccc3nc3ccccc23)c1
12,58 to 59,CCOC(=O)CN1C(=O)C2(COc3cc4c(cc32)OCCO4)c2ccccc21 (centres undefined)
13,243 to 245,ON=Cc1cn2c(cnc3ccccc32)n1
14,124,Fc1cc(OCc2ccccc2)ccc1-c1ncc(Br)cn1
15,224 to 225,COC(=O)C1=C(C)NC2=C(C(=O)OC2)C1c1ccccc1C (centres undefined)
16,211 to 212,COc1ccc(Cl)c(S(=O)(=O)NC(=O)c2cn3cc(C(F)(F)F)cc(Cl)c3n2)c1
17,206,Cc1ccc(=NS(=O)(=O)C(F)(F)F)n(-c2cccc(C(F)(F)F)c2)c1
18,347 to 349,CC(C)NC(=O)c1c[nH]c2ncc(-c3nn(C)c4cc(Cl)cc(F)c34)nc12
19,48 to 50,CCOC(=O)c1ccc(C=C(C)c2ccc3c(c2)OCCC3(C)C)cc1
20,146 to 151,O=C(O)COc1cccc(NCc2nc(-c3ccccc3)c(-c3ccccc3)o2)c1
21,278 to 280,O=C1c2ccccc2N(c2ccc(F)cc2)C2=NCCN12
22,> 250,COc1cc2ncc(C#N)c(Nc3ccc(O)cc3Cl)c2cc1OC
23,330 to 339,N#Cc1ccc(-c2ccc(Cl)cc2)[nH]c1=O

row,melting point [°C],Compound
1,81 to 82,Cc1cc(C)cc(Sc2c(CC#N)nc(C)n2C)c1
2,65 to 69,Cc1nn(-c2ccc(F)cc2)cc1C(=O)N(C)c1ccc(OCC(C)(C)C)c(C#N)c1
3,139 to 140,COc1ccc(-c2nc(C(C)=O)oc2-c2ccc(OC)cc2)cc1
4,149,Cc1ccc(S(=O)(=O)n2c3cccc(CCl)c3c3c(C)ccc(C)c32)cc1
5,234 to 235,CC1(C)Oc2ccc(S(=O)(=O)c3ccc(C#N)cc3)cc2[C@@H](N2CCCC2=O)[C@@H]1O (relative stereo)
6,200 to 202,COc1cccc2c1nc(C(F)F)n2-c1nc(C2CCCN(C(=O)OC(C)(C)C)C2)nc(N2CCOCC2)n1 (centres undefined)
7,294 to 296,O=C1c2c(Cl)cccc2-n2c1nc1ccccc1c2=O
8,246 to 248,N#CC(C#N)=C1C(=O)Nc2ccc(S(=O)(=O)N3CCCC3COc3ccccc3)cc21 (centres undefined)
9,132 to 133,CCCNC(=O)C1(O)CC(O)C(O)C(O)C1 (centres undefined)
10,69 to 70,CCCCCCCCCCOc1ccc(Br)cc1C12CC3CC(CC(C3)C1)C2
11,200 to 202,O=C(O)C=Cc1cc(Cl)ccc1C(=O)O
12,119 to 120,CSc1ccc(Oc2ccc([N+](=O)[O-])cc2[N+](=O)[O-])cc1
13,229 to 230,O=C(O)c1cccc(-c2ccc3c(c2)C(c2cc(Cl)ccc2Cl)CC3)c1 (centres undefined)
14,126,O=C(O)c1nc(C(Cl)(Cl)Cl)n(-c2cccc(C(F)(F)F)c2)n1
15,257 to 258,CC(=O)Nc1cc(-n2c(=O)cc(C(F)(F)F)n(C)c2=O)c(F)cc1Cl
16,60 to 62,CCCCC(CC)COc1ccc2cc3cc(OCC(CC)CCCC)ccc3cc2c1 (centres undefined)
17,168 to 170,CC(C)c1cccc(C(C)C)c1NS(=O)(=O)CC(=O)NCC(c1ccccc1)C1CCCC1 (centres undefined)
18,114,CCOC(=O)c1ccc(OCCC2CCN(c3ccc(C)nn3)CC2)s1
19,256 to 257,CC1(C)OC(=O)Nc2c(F)cc(-c3cc(F)cc(C#N)c3)cc21
20,110 to 112,C1=CSC(Sc2ccccc2)(c2ccc(Sc3ccccc3)s2)C1 (centres undefined)
21,107 to 108,CCC(O)(c1ccc(OCc2cccc(C)n2)cc1)c1cc(C)ccc1C (centres undefined)
22,254 to 256,Cc1[nH]c(C(=O)NC2CCN(c3cc(C(=O)O)nc4ccccc34)CC2)c(Cl)c1Cl
23,198 to 200,Cc1cn2c(C)nc3c(C)nn(C)c3c2n1

row,melting point [°C],Compound
1,224 to 225,Clc1ccc2nc3c(nc2c1)-c1cccc2cccc-3c12
2,141 to 142,CC1(C)OC(c2ccc(Cl)cc2Cl)C(Cn2cncn2)(c2ccc(Cl)cc2)O1 (centres undefined)
3,203 to 205,O=C(NCc1ccc(Cl)cc1)c1cn2c3c(cc(CN4CCOCC4)cc3c1=O)CN(Cc1ccccc1)C2
4,78 to 79,O=C(CC1CCCCC1=O)c1ccc(Cl)c(Cl)c1 (centres undefined)
5,210 to 212,CCn1cc(C=CC(N)=O)c([N+](=O)[O-])n1
6,103 to 104,COCOc1cccc(-c2ccc(-c3ccccc3)cc2-c2ccc3c(c2)C(C)(C)CCC3(C)C)c1C(=O)O
7,138 to 140,CCSC(C)(C)C(=O)CC(=O)Nc1cc([N+](=O)[O-])ccc1OC
8,83 to 85,COc1ccc(Nc2ccccc2C=C(Br)Br)cc1OC
9,68 to 72,N=C(NO)c1nn(-c2c(Cl)cc(C(F)(F)F)cc2Cl)c(C=NO)c1SC(F)(F)F
10,110 to 111,COc1cc(Nc2nccc(-c3ccc(N4CC(C)NC(C)C4)nc3)n2)cc(OC)c1OC (centres undefined)
11,122,CCOC(=O)N1CCC(n2c(=O)n(C)c3cc(Cl)ccc32)CC1
12,129 to 131,C=CCOc1ccccc1C1C(C(=O)OCC)=C(C)NC(C=O)=C1C(=O)OCC (centres undefined)
13,256 to 258,CCCn1c(=O)c2c(NC)n[nH]c2n(CCc2ccccc2)c1=O
14,189 to 190,CC(=O)Nc1ccc2c(c1)CCC(CC#N)C2=O (centres undefined)
15,159 to 160,COC(=O)C1=C(C)NC(C)=C(C(=O)OCCN2CCC(c3ccccc3)CC2)C1c1cccc([N+](=O)[O-])c1 (centres undefined)
16,198 to 200,CCOC(=O)C1=CNc2ccnn2C1
17,163 to 165,COc1cccc(Cc2nc3c(N)ncnc3[nH]2)c1
18,191 to 192,O=C1NCCN=C1c1ccc([N+](=O)[O-])cc1
19,212 to 215,O=C1c2ccccc2C(=O)N1CCc1ccc(C=Cc2ccccc2)cc1
20,100,O=[N+]([O-])c1cccnc1NCc1cccs1
21,221 to 222,Cc1nc(N)c(Br)c(NNCc2cncc(Br)c2)n1
22,229 to 230,CCOC(=O)c1cnc(Nc2cccc(C(F)(F)F)c2)[nH]c1=O
23,82 to 85,CCOC(=O)c1snc(CO)c1N

row,melting point [°C],Compound
1,219 to 220,Clc1ccc(N2CCN(Cc3c[nH]c4ncccc34)CC2)cc1Cl
2,209 to 211,CC(=O)NNc1c(C)cnc2c(NC(=O)c3ccccc3C(F)(F)F)cccc12
3,94.5 to 95.5,CC(=O)C(=Cc1cccc([N+](=O)[O-])c1)C(=O)OCCBr
4,195 to 197,O=c1ccc(-c2cc(F)c(OC3CCN(C4CCC4)CC3)c(F)c2)n[nH]1
5,238 to 240,O=C1Nc2ccccc2Cc2nccn21
6,208 to 210,Nc1c(Cl)ccc2c1C=C(C(=O)O)C(C(F)(F)F)O2 (centres undefined)
7,182,CCn1ncnc1COc1nn2c(-c3c(F)cccc3F)nnc2cc1C(C)(C)C
8,250 to 253,O=C1Nc2cccc(Cl)c2C1(O)c1cc2c(cc1O)OCO2 (centres undefined)
9,148,CC(C)(C)OC(=O)N[C@@H](Cc1ccc(O)c(O)c1)C(=O)O
10,97 to 98,COCOc1cc(-n2c(OC)nc(C(F)(F)F)cc2=O)c(F)cc1Cl
11,122 to 125,CC(C)c1nc(N(C)S(C)(=O)=O)nc(-c2ccc(F)cc2)c1Br
12,141,CC(=O)Nc1nc(C)c(CCN2CCC(=C(c3ccc(F)cc3)c3ccc(F)cc3)CC2)c(=O)n1C
13,58 to 60,CN(CCCOC(=O)Cc1ccccc1Nc1c(Cl)cccc1Cl)CC1(SN=O)CCCCC1
14,222,COc1ccc(N2CCN(c3ccc(NC(=S)NC(C)(C)CO)cc3)CC2)cc1
15,94 to 98,O=C(NCCCc1ccncc1)N1CCOCC1
16,110 to 111,O=c1c(-c2cccc(C(F)(F)F)c2)ccc2ccccn12
17,> 110,CCCCc1nc(CO)c(C(=O)NCC(=O)O)n1Cc1ccc(-c2ccccc2C(=O)O)cc1
18,49 to 54,CC1(C)c2ccc(C(F)CN3CCN(c4nsc5ccccc45)CC3)cc2C(C)(C)C1O (centres undefined)
19,114 to 115,CCOc1ccc(NC=C(C(=O)Nc2ccccc2)c2cc(C)no2)cc1
20,250,Cc1cc(-c2cc(C(F)(F)F)n3ncc(C(=O)O)c3n2)ccc1C(F)(F)F
21,118 to 120,O=Cc1ccc(OCc2ccccc2)c(O)c1
22,188 to 191,Cc1oc(-c2ccccc2)nc1CCOc1ccc(CC2SC(=O)NC2=O)c2ccccc12 (centres undefined)

row,Compound,melting point [°C]
1,CC1(C)CCC(C)(C)c2cc(-c3ccc4cc(C(=O)O)cc(O)c4c3)ccc21,299
2,COC(=O)C=C1CN=C(c2ccccc2)c2cc(Cl)ccc2N1,167 to 170
3,CN(CC(N)=O)C(=O)CCl,85 to 86
4,COc1cc(C2C3=C(COC3=O)Nc3ccc4nc(C)sc4c32)ccc1O (centres undefined),293 to 295
5,CCCN1CC(C)C=C2c3cccc4c3C(CN4)CC21 (centres undefined),135 to 137
6,CN1CCC(N(C)c2ncc3ncnc(Nc4ccc(Cl)c([N+](=O)[O-])c4)c3n2)CC1,210 to 215
7,O=C1CN=C(c2ccccc2Br)c2cc(F)ccc2N1,194 to 196
8,CCCOc1cc(-c2cc(C=CC(=O)O)ccc2O)cc2c1C(C)(C)CCC2(C)C,114 to 116
